Measured values reported in PMC4043716 (Drug Design, Development and Therapy, 2014).
Where two headings read alike, the source gives them in different places.

Assays:
[1] = format: cell-based; conditions: rat, PC12 cells
[2] = system: NIH3T3 cells; format: cell-based, mouse; conditions: 1 μM staurosporine alone, 24 hours
[3] = system: NIH3T3 cells; experiment: JC-10 mitochondrial membrane potential assay; format: cell-based, mouse; conditions: 1 μM staurosporine alone, 6 hours
[4] = system: caspase-3/7; experiment: Apo-ONE Homogeneous Caspase-3/7 Assay in NIH3T3 cells; format: cell-based, mouse; conditions: 1 μM staurosporine alone, 6 hours
[5] = format: cell-based; conditions: human, SH-SY5Y cells
[6] = format: cell-based; conditions: human, U87MG cells
[7] = system: NIH3T3 cells; experiment: MTT cell proliferation assay; format: cell-based, mouse; conditions: 1 μM staurosporine alone, 24 hours

Q: With `CN[C@@H]1C[C@H]2O[C@@](C)([C@@H]1OC)n1c3ccccc3c3c4c(c5c6ccccc6n2c5c31)C(=O)NC4` [staurosporine] as the compound, how does the viability at 24 h, 1 μM [1] read?
A: 4%

Q: What about the Cell death [2] of the same compound?
A: over 90%

Q: And the Mitochondrial membrane potential [3]?
A: significantly lost mitochondrial membrane potential

Q: And the “Caspase activation (caspase-3/7 activity)” value [4]?
A: induced significant caspase activation

Q: And the viability at 24 h, 1 μM [5]?
A: 6%

Q: And the viability at 24 h, 1 μM [6]?
A: 8%

Q: And the “Cell viability by MTT” value [7]?
A: reduced the cell viability dramatically
